Key:
[1] = test system: anti-BCMA CAR+ T cells; assay: Surface markers and proliferation at different T cell:bead ratios with or without lenalidomide; type: cell-based, human
Description: In another experiment, approximately 1.5×10^6 CAR+ T cells, prepared as described above, were added to wells of a 12-well plate and were incubated with beads from a 200 μg BCMA-conjugated bead composition at a ratio of CAR+ T cell to BCMA-conjugated bead of 1:0.3, 1:1 or 1:3 (approximately 0.5×10^6, 1.5×10^6, and 4.5×10^6 beads per well, respectively). As controls, 5 μg/mL anti-CD3 antibody was coated to wells (sub-optimal concentration for stimulation) or cells were seeded in the absence of any agent (no stimulation control). Each condition was incubated in the presence or absence of 5 μM lenalidomide. […] […] There also was a slight increase in PD-1 surface expression on CD8+ cells when stimulated with BCMA-conjugated beads at the higher BCMA bead concentration provided at the ratio of 1:3 CAR+ T cells to beads. The results are consistent with a finding that the BCMA concentration present during the incubation can differentially modulate surface marker expression on the CAR+ T cells.

[2] = test system: anti-BCMA CAR T cells; assay: Cytokine production after 24 hours BCMA bead stimulation with or without lenalidomide; type: cell-based, human
Description: In another study, recombinant human BCMA-conjugated beads were used to stimulate CAR T cells at various concentrations to titrate the magnitude of stimulation, either low ([…]), medium ([…]), and high (200 μg/mL) stimulation. […] Cells were stimulated with BCMA conjugated beads for 24 hours in the presence of 0.1 μM or 1.0 μM lenalidomide, or vehicle control. A protein transport inhibitor was added in the final hours of incubation, and cells were stained for intracellular IL-2, IFN-γ, and TNF-α.

[3] = test system: RPMI-8226 target cells; assay: Cytolytic activity and IFN-gamma against target cells after bead incubation; type: cell-based
Description: Cytolytic activity of CAR+ T cells after incubation with BCMA-conjugated beads was assessed by incubation with the BCMA-expressing target cell line RPMI-8226, which is a BCMA+ multiple myeloma cell line. After seven days of incubation of anti-BCMA CAR+ T cells with BCMA-conjugated beads (5 μg/ml or 50 μg/ml) in the presence or absence of lenalidomide, the beads were removed from the cultures and the cells were plated with the RPMI-8226 target cells at a ratio of effector cells to target cells of 3:1 or 1:1 in the further presence or absence of 5 μM lenalidomide. To perform the cytolytic assay, the target RPMI-8226 cells were labeled with NucLight Red (NLR) to permit tracking of target cells by microscopy. Cytolytic activity was assessed by measuring the loss of viable target cells over a period of four days, as determined by red fluorescent signal (using the INCUCYTE® Live Cell Analysis System, Essen Bioscience). The number of viable cells was normalized to cells at day 0 prior to incubation with the RPMI-8226 target cells.
In a further exemplary study, anti-BCMA CAR+ T cells were untreated, or were incubated for 24 hours or for seven days with beads (diameter about 4.5 μm) from a 50 μg/mL BCMA-conjugated bead composition generated as described in Example 1 at a ratio of beads to cells of 1:1. The anti-BCMA CAR T+ cells were removed from the cultures and incubated with RPMI-8226 target cells at a 0.3:1 or 1:1 effector cell to target cell ratio. To assess cytokine response to the target cells after incubation with BCMA-conjugated beads, IFN gamma levels were measured in the supernatant.

[4] = test system: Anti-BCMA CAR-T cells; assay: Phenotype of anti-BCMA CAR T cells stimulated 7 days on BCMA beads with or without lenalidomide; type: cell-based, human
Description: (§1) Anti-BCMA CAR-T cells, generated from samples from representative healthy donors or multiple myeloma patient derived material, and cultured with 50 μg/mL BCMA-Fc conjugated beads (generated as described in Example 1) at a ratio of 1:1 bead:CAR+ T cell for 7 days, in the presence of […] lenalidomide or a vehicle control. Expression of CD25, PD-1, Tim3 and Lag3 on CAR T cells (using an antibody for surrogate CAR marker) cultured under the different conditions then was assessed by flow cytometry.

[5] = test system: RPMI-8226; assay: Serial restimulation with BCMA-conjugated beads, then cytolytic activity; type: cell-based
Description: Anti-BCMA CAR T cell compositions were generated from three different donors, each containing T cells expressing the same anti-BCMA CAR, thawed, and were incubated for seven days with beads (diameter about 4.5 μm) from a 50 μg/mL BCMA-conjugated bead composition generated as described in Example 1 at a 1:1 ratio of beads to cells. The incubation was carried out in the presence of 5 μM lenalidomide or in the absence of lenalidomide (vehicle control). Cells were harvested after 7 days and replated for three further rounds up to 28 days, each round involving resetting to initial seeding density and incubating for an additional 7 days in the presence of the same concentration of lenalidomide.
At each reset after the pretreatment, cytolytic activity was assessed by incubation with the BCMA-expressing target cell line RPMI-8226 (labeled with NucLight Red (NLR)) at an effector to target cell (E:T) ratio of 1:1 in the further presence of or absence of lenalidomide. Cytolytic activity was assessed by measuring the loss of viable target cells over a period of up to 80-150 hours, as determined by red fluorescent signal (using the IncuCyte® Live Cell Analysis System, Essen Bioscience). Cells from each condition were plated in triplicate. The % cell killing compared to vehicle only control (set at 100%) was determined.

[6] = test system: anti-BCMA CAR+ T cells; assay: Cell count and CTV proliferation after BCMA-conjugated bead stimulation; type: cell-based, human; conditions: 5 μM lenalidomide
Description: (§2) Cryofrozen anti-BCMA CAR T cells, produced substantially as described in Example 2 and formulated at a 1:1 ratio of CD4+ and CD8+ T cells, were thawed. Unless otherwise indicated, beads (diameter about 4.5 μm) from a 5 μg/ml or 50 μg/ml BCMA-conjugated bead composition, generated as described in Example 1, were added to the wells at a ratio of T cells to beads of 1:2 in the presence or absence of 5 μM lenalidomide. Cells were incubated up to 14 days and analyzed at various time points for cytokine secretion, cell expansion by flow cytometry for the EGFRt surrogate marker, and for cytolytic activity.
Total cell count, monitored at day 4 (FIG. 9G) and day 7 (FIG. 9H), was increased following stimulation of anti-BCMA CAR+ T cells with beads from a 50 μg/mL BCMA-conjugated bead composition, but not 5 μg/mL BCMA-conjugated bead composition, compared to the cells present at the time of initiation of the incubation (dashed line).
To further assess proliferation, the cells containing anti-BCMA CAR-expressing T cells were labeled with the proliferation marker dye CELLTRACE VIOLET (CTV; ThermoFisher Scientific, Waltham Mass.) in accordance with the manufacturer's protocol prior to incubation with the BCMA-conjugated beads. Proliferation was assessed by dye dilution using flow cytometry on cells that were stimulated with beads from the 50 μg/mL BCMA-conjugated bead composition.

[7] = test system: Healthy donor-or patient-derived CART cells; assay: Cytokine production on BCMA or BCMA/PD-L1 conjugated beads; type: cell-based, human; conditions: 1 μM, in the presence of PD-L1; versus vehicle
Description: In another study, cells were cultured in the presence of BCMA beads generated as described in Example 1, with or without additional conjugation of human recombinant PD-L1-Fc. Healthy donor-or patient-derived CART cells were stimulated in the presence of BCMA-conjugated beads or BCMA/PD-L1 conjugated beads for 24 hours in the presence of 1 μM lenalidomide. Cytokine production was measured in the supernatant. […] The results were consistent with a conclusion that anti-BCMA CAR-T cytokine production following incubation with BCMA-conjugated beads was increased by lenalidomide in the presence of PD-L1-mediated inhibition.

[8] = test system: anti-BCMA CAR T cells; assay: Cytokines in culture supernatant 24 hours after addition of BCMA-conjugated beads; type: cell-based, human
Description: as §2
Twenty four hours after addition of BCMA-conjugated beads, the presence of TNF-α, IFNγ, and IL-2 in culture supernatants was assessed.
In a further exemplary study, two different anti-BCMA CAR T cell compositions were generated from different donors, each containing T cells expressing the same anti-BCMA CAR. The cells were thawed and incubated with beads (diameter about 4.5 μm) from a 5 μg/mL or 200 μg/mL BCMA-conjugated bead composition generated as described in Example 1. The incubation was carried out at a ratio of T cells to beads of 1:1 in the presence or absence of 1 μM or 5 μM lenalidomide. Twenty four hours after addition of BCMA-conjugated beads, IL-2 production by the anti-BCMA CAR+ T cells was assessed in culture supernatants.

[9] = test system: anti-BCMA CAR+ T cells; assay: Expansion of EGFRt+ cells after BCMA-conjugated bead stimulation; type: cell-based, human; conditions: 5 μM lenalidomide
Description: as §2
Four days and seven days after addition of BCMA-conjugated beads, the incubated cells were stained with CD4 or CD8 and with an anti-EGFR antibody to determine the percentage of cells positive for EGFRt as a surrogate for CAR+ T cells. At the time of plating, 26% of the CD4+ cells expressed anti-BCMA CAR and 39% of the CD8+ cells expressed anti-BCMA CAR as determined by staining with BCMA-Fc. The percent of EGFRt+CD4+ T cells increased from about 26% at the initiation of the incubation to greater than 40% by day 4 (FIG. 9J) and greater than 60% by day 7 (FIG. 9K) when the cells were incubated in the presence of beads from a 50 μg/mL BCMA-conjugated bead composition. […]

[10] = test system: RPMI-8226 target cells; assay: Cytolytic activity and cytokine production of bead-prestimulated CAR-T cells on target cells; type: cell-based
Description: as §1
Specifically, for pretreated cells in which pretreatment had been conducted in the presence of lenalidomide, the cells were cultured with the target cells in the presence of lenalidomide; likewise, for pretreated cells in which pretreatment had been conducted in the presence of vehicle, cells were cultured with the target cells in the presence of vehicle. Following the co-culture, cytolytic activity was assessed by measuring the loss of viable target cells over a period of seven days, as determined by red fluorescent signal. Percentage killing was normalized to anti-BCMA CAR T cells prestimulated on beads in the presence of vehicle. Cytokine production was assessed by ELISA from supernatant following culture with target cells for 24 hours. Experiments were performed twice in 3 donors. […]

[11] = medium stimulation (50 μg BCMA beads), 24 hours, 1 μM

## Nc1cccc2c1CN(C1CCC(=O)NC1=O)C2=O (stereo not shown) [lenalidomide]
[1]; 5 μM, three days with 200 μg BCMA beads at 1:1, versus vehicle
  proliferative capacity of T cells (CTV): increased the proliferative capacity of T cells
[1]; lenalidomide present during BCMA bead or anti-CD3 stimulation
  surface expression of CD25 in CD4+ and CD8+ T cells: further increased the extent of surface expression of CD25
[2]; 0.1 μM or 1.0 μM, all stimulation levels, CD4+ and CD8+
  percentage of IFN-γ+ and TNF-α+ intracellular staining: increased the percentage
[2]; 5-μg stimulation
  percentage of IL-2+ CAR+ T cells: increasing the percentage
[2]; 50-μg and 200-μg stimulation
  percentage of IL-2+ CAR+ T cells: decreasing the percentage
[2]; absence of stimulation
  CAR T cytokine production: had no effect on CAR T cytokine production
[2]; [11]
  increase in IL-2 concentration compared with vehicle control: 200%
  increase in TNF-α concentration compared with vehicle control: 200%
[2]; medium stimulation, 24 hours
  IFN-γ concentration compared with vehicle control: donor-dependent increases
[3]; RPMI 8226 cells cultured in the presence of lenalidomide, no T cells
  target cell viability: did not directly influence target cell viability
[3]; lenalidomide during the seven day bead incubation prior to the killing assay
  cytolytic activity of the CAR+ T cells: increased cytolytic activity of the CAR+ T cells
[3]; lenalidomide present during the cell killing assay
  killing activity: did not substantially affect killing activity
[4]; 1 μM, 7 days on 50 μg/mL BCMA beads, 3 healthy donors
  CAR+ viability: significantly increased CAR+ viability
[4]; 1 μM, 7 days on BCMA beads
  surface CD25 expression (MFI): increasing CD25 expression
  surface PD-1 expression (MFI): reduced PD-1 expression
  total cell count: did not alter the total cell count
[4]; CD4+ and CD8+ CAR+ populations
  percentage positive for Lag3 expression: increased
[4]; CD4+ population
  percentage of PD-1+ cells: decrease in the percentage of PD-1+ cells
[4]; CD8+ population
  surface expression of Tim3: increased the surface expression of Tim3
[4]; vehicle- versus lenalidomide-treated
  percentage CAR+: no significant differences
[5]; further donor (FIG. 10B), all time points
  killing efficacy: increased killing efficacy
[5]; preincubated with 5 μM lenalidomide 7 or 14 days, exemplary donor
  cytolytic activity: exhibited greater cytolytic activity
[5]; preincubated with lenalidomide 14 or 21 days compared to day 7
  killing efficacy: overall decrease in killing efficacy
[6]; 50 ug beads, day 7
  proliferation (cell count): small increase in proliferation
[6]; 50 μg/mL beads, day 4 but not day 7
  proliferation as assessed by CTV dilution: slight delay in proliferation
[7]
  secreted cytokine levels: potentiated secreted cytokine levels
[8]; 1 μM or 5 μM, 200 or 5 μg/mL beads
  cytokine (IL-2) production: increased cytokine production in the presence of both the high and low antigen stimulation
[8]; 5 μM lenalidomide, 24 hours
  BCMA-induced CAR+ T cell cytokine production: increased BCMA-induced CAR+ T cell cytokine production
[9]
  extent of CAR+ T cell expansion: did not substantially impact the extent of CAR+ T cell expansion
[10]; 1 μM lenalidomide during prestimulation versus vehicle
  cytokine production: trend toward increased cytokine production
[10]; 1 μM lenalidomide during the prestimulation period
  cytolytic function: preserved cytolytic function
